The values that follow come from article PMC11050532, “The Inhibition Activity of Natural Methoxyflavonoid from Inula britannica on Soluble Epoxide Hydrolase and NO Production in RAW264.7 Cells” (International Journal of Molecular Sciences, 2024).

For data set [1], the system named is sEH. The following applies: cited from earlier work; for inhibition mode: sEH.
In data set [2] the test system is mice with angiotensin-II-induced hypertension. More on the design: method as in PMID 15699457. To be noted: cited from earlier work.
On the set-up of data set [3]: method as in PMID 23020295. To be noted: cited from earlier work.
For data set [4], the target named is T1, sEH (Homo sapiens, UniProt P34913).
T1 construct: purchased Cayman Chemical 10011669
T1 sequence (P34913 1-555): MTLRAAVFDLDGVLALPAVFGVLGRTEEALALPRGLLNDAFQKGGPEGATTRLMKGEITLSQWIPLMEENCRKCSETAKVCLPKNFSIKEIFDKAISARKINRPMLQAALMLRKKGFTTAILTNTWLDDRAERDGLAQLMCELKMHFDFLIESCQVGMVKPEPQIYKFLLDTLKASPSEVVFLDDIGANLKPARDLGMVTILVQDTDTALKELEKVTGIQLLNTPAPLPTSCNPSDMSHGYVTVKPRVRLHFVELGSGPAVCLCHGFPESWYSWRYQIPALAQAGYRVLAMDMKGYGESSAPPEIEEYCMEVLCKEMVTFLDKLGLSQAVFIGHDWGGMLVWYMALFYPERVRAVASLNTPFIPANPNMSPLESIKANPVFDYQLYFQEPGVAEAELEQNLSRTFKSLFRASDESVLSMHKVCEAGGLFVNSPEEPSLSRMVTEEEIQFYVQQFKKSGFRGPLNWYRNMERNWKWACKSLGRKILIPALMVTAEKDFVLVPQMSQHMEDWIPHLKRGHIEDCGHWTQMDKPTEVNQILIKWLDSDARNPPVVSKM
Put plainly: sEH activity assay (PHOME fluorescence). To be noted: triplicate, six concentrations. It counts as biochemical. The procedure: ^1H (400 MHz) and ^13C (100 MHz) nuclear magnetic resonance (NMR) spectra were obtained using a Bruker DRX-400 spectrometer (Bruker, Billerica, MA, USA) with tetramethylsilane as the internal standard. Thin-layer chromatography (TLC) was performed on pre-coated silica gel 60 F254 (0.25 mm; Merck, Rahway, NJ, USA) and reversed-phase-18 F254s plates (0.25 mm; Merck). Column chromatography was performed using a silica gel (60 A, 70–230, or 230–400 mesh ASTM; Merck, Germany) and reversed-phase silica gel (ODS-A, S-75 μm; YMC, Kyoto, Japan). […] Greiss reagent and lipopolysaccharide (LPS) were purchased from Sigma-Aldrich (St. Louis, MO, USA). Dulbecco’s modified Eagle medium (DMEM) and fetal bovine serum were purchased from Gibco (Grand Island, NY, USA). Penicillin/streptomycin antibiotics came from Invitrogen (Carlsbad, CA, USA).
Inhibitor efficiency (%) was calculated as shown in Equation (1):Inhibitory activity = 100 − [(I4_0 − I0)/(M40 − M0)] × 100(1) where I40 and M40 are the fluorescence of the candidate inhibitor (I) and methanol (M) after 40 min, and I0 and M0 are the fluorescence of I and M at 0 min, respectively.

For data set [5], the target named is T1, sEH. As to the kind of experiment: sEH enzyme kinetics (Lineweaver–Burk and Dixon plots). It is filed as biochemical. To be noted: for Ki: calculated from the Dixon plot; for Binding Mode: substrate 3.1–50 µM, Lineweaver–Burk plot. The procedure: Determinations of enzyme kinetics yield insights into the interactions between inhibitors and enzymes. In such studies, the changes in the initial velocity (v0) of the enzymatic reaction induced by the inhibitor depending on the substrate concentration are monitored. To investigate the effects of the five flavonoids (1–5) on sEH, a substrate concentration of 3.1–50 µM was used. […] The ki values calculated from the Dixon plot were 43.9, 19.8, 17.5, 63.5, and 68.7 µM, respectively (Figure 2G–K).
In 96-well plates, 20 µL of isolated compounds […] in methanol was mixed with 100 µL of 25 mM Tris–HCl (pH 7.0) buffer containing 0.1% BSA, followed by adding 30 µL of 1.0 µg/mL sEH and then 50 µL of 40 μM PHOME. The reaction product was measured using a fluorescent photometer (excitation filter: 330 nm, emission filter: 465 nm).

Data set [6] concerns NO production by poly(I:C)-induced RAW264.7 cells. Put plainly: Nitric oxide assay (Griess method). To be noted: for NO production: 10 µM compound, induced control 19.0 ± 1.5 µM, unstimulated ~0.91 µM; for inhibition at 10 µM: Mus musculus, RAW264.7, poly(I:C)-stimulated cells. It is filed as cell-based. The procedure: The activity of compounds 1–5 with respect to NO production by poly(I:C)-induced RAW264.7 cells was evaluated by measuring the amount of nitrite that accumulated in the culture medium using the Griess method. When tested at a concentration 10 µM, none of the compounds affected the viability of RAW264.7 cells. In unstimulated RAW264.7 cells, NO production was ~ 0.91 µM, whereas in poly(I:C)-induced cells, it was 19.0 ± 1.5 µM. In induced cells simultaneously treated with compounds 1–5 at a concentration of 10 µM, NO production was 12.5 ± 0.1, 9.6 ± 0.2, 4.0 ± 0.2, 7.0 ± 0.3, and 13.9 ± 0.8 µM, respectively (Figure 5).
RAW264.7 macrophages were initially cultured as described above and then pretreated for 2 h with 10 µM of the candidate inhibitor. Then, they were stimulated with 1 µg LPS /mL for 24 h. Then, 100 µL each of supernatant and Griess reagent were added to the plate. The absorbance at 450 nm was measured as described.
(Griess reagent forms a coloured azo dye with nitrite.)

Data set [7] has as its system LPS-activated THP-1 cells. More on the design: method as in PMID 27177082. The following applies: cited from earlier work.
For data set [8], the system named is arthritic rats. More on the design: method as in PMID 27177082. To be noted: cited from earlier work.

The term IC50 denotes the concentration at which inhibition is half-maximal. A lower IC50 goes with higher potency. What is called Ki is the dissociation constant of the complex between target and ligand, obtained from inhibition or displacement. The term inhibition denotes how much of the control response was suppressed. A lower inhibition goes with a weak effect.

The structures appear in SMILES notation. Bounds are passed on as bounds.

As for `C=C(C)[C@@H](O)[C@@H](O)C[C@@H](C)C1=C2CC[C@H]3[C@@]4(C)CCC(=O)C(C)(C)[C@@H]4CC[C@]3(C)[C@@]2(C)CC1` [11-deoxy-25-anhydroalisol E], the “sEH inhibition (in words)” value in data set [1] is “considerable inhibitory effects on sEH”.

Turning to `O=C(O)CCCCCCCCCCCNC(=O)NC12CC3CC(CC(C3)C1)C2` [AUDA, 12-(3-adamantan-1-yl-ureido) dodecanoic acid], the blood pressure entry in data set [2] is “effective for lowering blood pressure”. Further, in data set [3], the metabolism in vivo result is recorded as “rapid metabolism in vivo”.

Turning to `COc1ccc(-c2oc3cc(OC)c(OC)c(O)c3c(=O)c2O)cc1O` [Compound 1, eupatin], the IC50 in data set [4] is 42.6 ± 0.8 µM. Moreover, in data set [5], the Ki was 43.9 µM. For the same molecule, the “Binding Mode” value in data set [5] was “non-competitive”; in data set [5] (listed as eupatin), “noncompetitive”. This molecule also had an NO production in data set [6] of 12.5 ± 0.1 µM.

In data set [4], `COc1c(O)cc2oc(-c3ccc(O)cc3)cc(=O)c2c1O` [Compound 2, hispidulin] showed a half-inhibitory concentration (IC50) of 22.2 ± 0.3 µM. Moreover, in data set [5], the Ki is 19.8 µM and the “Binding Mode” value is on record as “non-competitive”. Further, the “Binding Mode” value in data set [5] (listed as hispidulin) was “noncompetitive”. Moreover, the NO production in data set [6] is listed as 9.6 ± 0.2 µM.

`COc1c(O)cc2oc(-c3ccc(O)c(O)c3)c(O)c(=O)c2c1O` [Compound 3, patuletin]: it took 12.1 ± 0.1 µM to reach half-maximal inhibition in data set [4] (IC50). The inhibitory constant (Ki) in data set [5] is 17.5 µM. The figures for the “Binding Mode” value in data set [5] and in data set [5] (listed as patuletin) were “non-competitive” and “noncompetitive”, respectively. Moreover, the NO production in data set [6] amounted to 4.0 ± 0.2 µM. The inhibition at 10 µM in data set [6] is greater than 50%. Also, the “TNF-α and IL-1β levels” value in data set [7] is “decrease TNF-α and IL-1β levels”; in data set [8], “decrease TNF-α and IL-1β levels”.

As to `COc1c(O)cc2oc(-c3ccc(O)c(O)c3)cc(=O)c2c1O` [Compound 4, nepetin], in data set [4], 40.9 ± 0.6 µM corresponded to half-maximal inhibition (IC50). Besides, in data set [5], the Ki is 63.5 µM and the “Binding Mode” value is recorded as “non-competitive”. Also, in data set [5] (listed as nepetin), the “Binding Mode” value was “noncompetitive”. Besides, in data set [6], the NO production is listed as 7.0 ± 0.3 µM and the inhibition at 10 µM was greater than 50%.

In data set [4], `COc1cc(-c2oc3cc(O)cc(O)c3c(=O)c2OC2OC(CO)C(O)C(O)C2O)ccc1O` (stereo not shown) [Compound 5, isorhametin-3-O-glucoside] gave a concentration for half-maximal inhibition (IC50) of 62.8 ± 1.8 µM. In addition, in data set [5], the Ki was 68.7 µM and the “Binding Mode” value was “non-competitive”. The “Binding Mode” value in data set [5] (listed as isorhametin-3-O-glucoside) is given as “noncompetitive”. This molecule showed an NO production in data set [6] of 13.9 ± 0.8 µM.

For the molecule `COc1cc(-c2cc(=O)c3c(O)cc(O)cc3o2)ccc1O` [chrysoeriol], in data set [1], the inhibition mode result is listed as “non-competitive”.

Take `COc1cc(-c2oc3cc(O[C@@H]4O[C@H](CO)[C@@H](O)[C@H](O)[C@H]4O)cc(O)c3c(=O)c2O)ccc1O` [isorhamnetin-7-O-glucopyranoside]: the inhibition mode entry in data set [1] is “non-competitive”.

With `O=c1c(O)c(-c2ccc(O)cc2)oc2cc(O)cc(O)c12` [kaempferol], the “sEH inhibition (in words)” value in data set [1] is listed as “potent sEH inhibitors”.

With `O=c1cc(-c2ccc(O)c(O)c2)oc2cc(O[C@@H]3O[C@H](CO)[C@@H](O)[C@H](O)[C@H]3O)cc(O)c12` [luteolin-7-O-glucopyranoside], the inhibition mode result in data set [1] is “non-competitive”.

`O=c1c(O)c(-c2ccc(O)c(O)c2)oc2cc(O)cc(O)c12` [quercetin]: the “sEH inhibition (in words)” value in data set [1] is on record as “potent sEH inhibitors”.
